# Experimental data: patent US9718774B2, “Indole carboxamide derivatives as P2X7 receptor antagonist” (ACTELION PHARMACEUTICALS LTD, priority 2012, dated 2017)
# Structures can show the parent of a compound that is named as a salt.
# Target: T1, human recombinant P2X7 receptor (Homo sapiens, UniProt Q99572)
# T1 construct: expressed in transfected cells
# T1 sequence (Q99572 1-595): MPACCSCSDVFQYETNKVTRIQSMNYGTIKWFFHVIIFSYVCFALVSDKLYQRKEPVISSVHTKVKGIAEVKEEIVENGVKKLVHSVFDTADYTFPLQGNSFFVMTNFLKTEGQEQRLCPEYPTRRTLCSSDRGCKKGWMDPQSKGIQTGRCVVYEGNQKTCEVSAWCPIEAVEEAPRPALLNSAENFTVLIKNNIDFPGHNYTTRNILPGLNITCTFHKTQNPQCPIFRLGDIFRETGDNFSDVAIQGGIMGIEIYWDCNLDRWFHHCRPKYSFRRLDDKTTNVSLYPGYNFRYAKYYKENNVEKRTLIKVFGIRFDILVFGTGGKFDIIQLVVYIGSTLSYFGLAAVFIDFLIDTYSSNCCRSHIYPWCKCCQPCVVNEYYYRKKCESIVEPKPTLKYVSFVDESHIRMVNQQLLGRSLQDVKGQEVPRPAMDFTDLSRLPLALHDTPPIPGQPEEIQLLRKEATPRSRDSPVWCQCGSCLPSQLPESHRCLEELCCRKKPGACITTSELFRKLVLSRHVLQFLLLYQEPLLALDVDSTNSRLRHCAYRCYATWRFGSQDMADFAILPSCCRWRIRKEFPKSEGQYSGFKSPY
# Experiment: YO-PRO assay: P2X7 receptor antagonistic activity in HEK cells stably expressing P2X7
# Type: cell-based
# Details: antagonistic activity with respect to the P2X7 receptor, read-out: IC50
# Protocol: The P2X7 receptor antagonistic activity of the compounds of formula (I) is determined in accordance with the following experimental method.
# Cell Line Generation and YO-PRO Assay
# Cell line generation was performed in general according to established molecular cloning protocols. Specifically, RNA was extracted from human whole blood using the Qiagen RNeasy kit (Qiagen, CH) according to the manufacturer's instructions. Subsequently cDNA was made (Superscript II, Invitrogen AG, CH) and the human P2X7 gene (genbank ref. BC011913) was amplified with the following primers: […] and […]. The amplified sequence was subsequently ligated into a pcDNA3.1 (+) NotI, NheI digested plasmid. Human embryonic kidney (HEK) cells (ATCC CRL—1573, Manassas, Va., USA) were transfected with the pcDNA3.1 (+).hP2X7 plasmid using lipofectamine 2000 (Invitrogen AG, CH) according to the manufacturer's instructions. Following a 24 h exposure to DNA, cells were trypsinized and re-seeded at low density in the presence of 250 μg Geneticin. Geneticin resistant cells were then selected during two consecutive rounds of cloning by serial limiting dilution with visual inspection. Individual clones were screened for P2X7 expression by applying ATP and recording the resultant uptake of YO-PRO1. Specific cell clones were chosen based on RNA and protein expression. HEK cells stably expressing P2X7 were used to screen drugs using the YO-PRO1 assay. Cells were grown to confluency in adherent culture at 37° C. in a humidified 5% CO2 incubator (split 1/5 every 3-4 days with DMEM, 10% FCS, 1% Penicillin/Streptomycin, 250 μg/ml Geneticin). Adherent cells were detached by incubation with Trypsine (1 ml per 165 cm^2 dish) for 2 minutes, then washed off with 10 ml PBS (without Mg^2+ and Ca^2+), and resuspended in DMEM, 10% FCS, 1% Penicillin/Streptomycin, no Geneticin. 10′000 cells per well (48 hours before the assay) or 25′000 cells per well (Vi-cell XR (Beckman Coulter) (24 hours before the assay) in 50 μl full medium were seeded on 384-well black-wall, clear bottom plates, that were coated before with 10 μl per well Poly-L-Lysine, incubated for 30-60 minutes at 37° C. and washed once with PBS. Medium was removed from cells and 50 μl of assay buffer containing 0.5 μM YO-PRO-1 was added into the wells. Solutions of antagonist compounds were prepared by serial dilutions of a 10 mM DMSO solution of the antagonist into PBS using a BioMek (Beckman Coulter). Each concentration was performed in duplicate. For IC50 measurements 10 concentration points were measured (10 μM being the highest concentration followed by 9 serial dilution steps 1/3). The cells were incubated with the antagonists of the present invention together with ATP at a final concentration of 250 μM for 90 minutes. During this time period, four time points were taken. Each time point comprised the average of several measurements made within a few seconds. Fluorescence was measured in the FLIPR tetra (Molecular Devices) using the filters appropriate for YO-PRO-1 fluorescence (excitation 485/20, emission 530/25). The FLIPR tetra was equipped with Molecular Devices Screen Works system control software to define and run experimental protocols. […] For IC50 measurements the maximum intensity is plotted against the concentration of compound to determine IC50 values.
row,SMILES,IC50 [nM]
1,"O=C(NCC(c1cccnc1)C1CCNCC1)c1ccc2[nH]ccc2c1Cl (racemic) [Example 20, rac-4-Chloro-1H-indole-5-carboxylic acid (2-piperidin-4-yl-2-pyridin-3-yl-ethyl)-amide dihydrochloride]",447
2,"CCN(CC)C(CNC(=O)c1ccc2[nH]ccc2c1Cl)c1cnc(C)nc1 (racemic) [Example 15, rac-4-Chloro-1H-indole-5-carboxylic acid [2-diethylamino-2-(2-methyl-pyrimidin-5-yl)-ethyl]-amide]",85
3,"Cc1ncc(C(CNC(=O)c2ccc3[nH]ccc3c2Cl)NCC2CCCC2)cn1 (racemic) [Example 84, rac-4-Chloro-1H-indole-5-carboxylic acid [2-(cyclopentylmethyl-amino)-2-(2-methyl-pyrimidin-5-yl)-ethyl]-amide]",1470
4,"O=C(NCC(c1ccc(C(F)(F)F)cc1)N1CCOCC1)c1ccc2[nH]ccc2c1Cl (racemic) [Example 49, rac-4-Chloro-1H-indole-5-carboxylic acid [2-morpholin-4-yl-2-(4-trifluoromethyl-phenyl)-ethyl]-amide]",34
5,"Cc1ncc(C(CNC(=O)c2ccc3[nH]ccc3c2Cl)N2CCS(=O)(=O)CC2)cn1 (racemic) [Example 92, rac-4-Chloro-1H-indole-5-carboxylic acid [2-(1,1-dioxo-thiomorpholin-4-yl)-2-(2-methyl-pyrimidin-5-yl)-ethyl]-amide]",98
6,"COc1cc(C(=O)NCC(c2cnc(C)nc2)N2CCOCC2)c(C)c2cc[nH]c12 (racemic) [Example 109, rac-7-Methoxy-4-methyl-1H-indole-5-carboxylic acid [2-(2-methyl-pyrimidin-5-yl)-2-morpholin-4-yl-ethyl]-amide]",25
7,"O=C(NCC(c1ccc(F)cc1F)N1CCCCC1)c1ccc2[nH]ccc2c1Cl (racemic) [Example 31, rac-4-Chloro-1H-indole-5-carboxylic acid [2-(2,4-difluoro-phenyl)-2-piperidin-1-yl-ethyl]-amide]",251
8,"O=C(NCC(c1cncs1)N1CCOCC1)c1ccc2[nH]ccc2c1Cl (racemic) [Example 64, rac-4-Chloro-1H-indole-5-carboxylic acid (2-morpholin-4-yl-2-thiazol-5-yl-ethyl)-amide]",53
9,"Cc1ncc(C(CNC(=O)c2ccc3[nH]ccc3c2Cl)N2CCCCCC2)cn1 (racemic) [Example 80, rac-4-Chloro-1H-indole-5-carboxylic acid [2-azepan-1-yl-2-(2-methyl-pyrimidin-5-yl)-ethyl]-amide]",25
10,"O=C(NCC(c1ccc(F)cn1)N1CCOCC1)c1ccc2[nH]ccc2c1Cl (racemic) [Example 36, rac-4-Chloro-1H-indole-5-carboxylic acid [2-(5-fluoro-pyridin-2-yl)-2-morpholin-4-yl-ethyl]-amide]",265
11,"Cc1ncc(C(CNC(=O)c2c(Cl)cc3[nH]ccc3c2Cl)N2CCOCC2)cn1 (racemic) [Example 94, rac-4,6-Dichloro-1H-indole-5-carboxylic acid [2-(2-methyl-pyrimidin-5-yl)-2-morpholin-4-yl-ethyl]-amide]",211
12,"O=C(NCC(c1ccc(C(F)(F)F)nc1)N1CCOCC1)c1ccc2[nH]ccc2c1Cl (racemic) [Example 10, rac-4-Chloro-1H-indole-5-carboxylic acid [2-morpholin-4-yl-2-(6-trifluoromethyl-pyridin-3-yl)-ethyl]-amide]",5.1
13,"O=C(NCC(c1ccc(Cl)cc1F)N1CCOCC1)c1ccc2[nH]ccc2c1Cl (racemic) [Example 40, rac-4-Chloro-1H-indole-5-carboxylic acid [2-(4-chloro-2-fluoro-phenyl)-2-morpholin-4-yl-ethyl]-amide]",73
14,"Cc1ncc(C(CNC(=O)c2ccc3[nH]ccc3c2Cl)OC2CCOCC2)cn1 (racemic) [Example 70, rac-4-Chloro-1H-indole-5-carboxylic acid [2-(2-methyl-pyrimidin-5-yl)-2-(tetrahydro-pyran-4-yloxy)-ethyl]-amide]",91
15,"O=C(NCC(c1ccc(Cl)nc1)N1CCCCC1)c1ccc2[nH]ccc2c1Cl (racemic) [Example 56, rac-4-Chloro-1H-indole-5-carboxylic acid [2-(6-chloro-pyridin-3-yl)-2-piperidin-1-yl-ethyl]-amide]",8.8
16,"CCc1cc(C(=O)NCC(c2cnc(C)nc2)N2CCOCC2)c(Cl)c2cc[nH]c12 (racemic) [Example 107, rac-4-Chloro-7-ethyl-1H-indole-5-carboxylic acid [2-(2-methyl-pyrimidin-5-yl)-2-morpholin-4-yl-ethyl]-amide]",15
17,"O=C(NCC(c1cccnn1)N1CCCCC1)c1ccc2[nH]ccc2c1Cl (racemic) [Example 73, rac-4-Chloro-1H-indole-5-carboxylic acid (2-piperidin-1-yl-2-pyridazin-3-yl-ethyl)-amide]",1010
18,"COc1ccc(C(CNC(=O)c2ccc3[nH]ccc3c2Cl)N2CCOCC2)cc1 (racemic) [Example 59, rac-4-Chloro-1H-indole-5-carboxylic acid [2-(4-methoxy-phenyl)-2-morpholin-4-yl-ethyl]-amide]",55
19,"O=C(NCC(c1ccc(F)cc1)N1CCOCC1)c1ccc2[nH]ccc2c1Cl (racemic) [Example 17, rac-4-Chloro-1H-indole-5-carboxylic acid [2-(4-fluoro-phenyl)-2-morpholin-4-yl-ethyl]-amide]",9.2
20,"O=C(NCC(c1cncs1)N1CCCCC1)c1ccc2[nH]ccc2c1Cl (racemic) [Example 62, rac-4-Chloro-1H-indole-5-carboxylic acid (2-piperidin-1-yl-2-thiazol-5-yl-ethyl)-amide]",48
21,"Cc1ccc(C(CNC(=O)c2ccc3[nH]ccc3c2Cl)N2CCCCC2)cc1 (racemic) [Example 55, rac-4-Chloro-1H-indole-5-carboxylic acid (2-piperidin-1-yl-2-p-tolyl-ethyl)-amide]",774
22,"Cc1ncc(C(CNC(=O)c2cc(C)c3[nH]ccc3c2C)N2CCOCC2)cn1 (racemic) [Example 104, rac-4,7-Dimethyl-1H-indole-5-carboxylic acid [2-(2-methyl-pyrimidin-5-yl)-2-morpholin-4-yl-ethyl]-amide]",35
23,"O=C(NCC(c1cnc(C(F)(F)F)nc1)N1CCC(F)(F)CC1)c1ccc2[nH]ccc2c1Cl (racemic) [Example 8, rac-4-Chloro-1H-indole-5-carboxylic acid [2-(4,4-difluoro-piperidin-1-yl)-2-(2-trifluoromethyl-pyrimidin-5-yl)-ethyl]-amide]",12
24,"CCCc1cc(C(=O)NCC(c2cnc(C)nc2)N2CCOCC2)c(Cl)c2cc[nH]c12 (racemic) [Example 111, rac-4-Chloro-7-propyl-1H-indole-5-carboxylic acid [2-(2-methyl-pyrimidin-5-yl)-2-morpholin-4-yl-ethyl]-amide]",18
25,"Cc1noc(C)c1C(CNC(=O)c1ccc2[nH]ccc2c1Cl)N1CCCCC1 (racemic) [Example 54, rac-4-Chloro-1H-indole-5-carboxylic acid [2-(3,5-dimethyl-isoxazol-4-yl)-2-piperidin-1-yl-ethyl]-amide]",1850
